{
  "source": "patent US9828386B2",
  "about": "(priority 2013, dated 2017)",
  "experiment_in_all_cases": "cells",
  "format_in_all_cases": "cell-based",
  "key": {"[1]": {"system": "A549 cell line", "conditions": "A549 cells, MTT, 48 h cultivation; read-out: IC50 (μM) A549", "experimental": "(§1) Test of compounds of embodiment of the present invention on inhibiting tumor cell activity\n(§2) 3, cell lines: A549, BGC823, Hela cell line and normal human hepatocytes which are available from Wu Han boster Co., Ltd.;\n(§3) A549, BGC823, Hela cell line and normal human hepatocytes in logarithmic growth phase are subjected to 1000 rpm centrifugation for 5 min, supernatant is then discarded, moderate medium is suspended, the cell concentration is adjusted to 3.5×10^4/well, the cells were seeded in 96-wells culture plate, and following experimental groups are set:\n(§4) a negative control group; 35 test groups with same concentration (ie: groups of Compound (1) to Compound (35)); three control groups: groups of podophyllotoxin, 4′-demethylepipodophyllotoxin and etoposide.\n(§5) Taking RPMI1640 containing 10% of calf serum as nutrient solution, 0.10 mL of cells per well is incubated under conditions of 37° C., 5% CO2 and saturated humidity for 24 h to nearly be covered, then the nutrient solution is discarded. […] 100 μl of DMSO is added to each well, then vibrated at 37° C. by shaker table for 30 min, then measuring absorbance (OD) at 492 nm, calculating MTT ratio=OD value of drug group/OD value of the negative control group."}, "[2]": {"system": "BGC823 cell line", "conditions": "BGC823 cells, MTT, 48 h cultivation; read-out: IC50 (μM) BGC823", "experimental": "as §1, §2, §3, §4, §5"}, "[3]": {"system": "Hela cell line", "conditions": "Hela cells, MTT, 48 h cultivation; read-out: IC50 (μM) Hela", "experimental": "as §1, §2, §3, §4, §5"}},
  "data": [
    {"compound": "COc1cc(C2c3cc4c(cc3C(Sc3ncccc3C(=O)O)C3COC(=O)C23)OCO4)cc(OC)c1O", "note": "(stereo not drawn) [Compound 23, 4-S-(3-picolinate-2)-deoxy-4′-demethylepipodophyllotoxin]", "values": [
      {"measurement": "IC50", "setting": "[1]", "result": "2.03 ± 0.45", "unit": "µM"},
      {"measurement": "IC50", "setting": "[2]", "result": "6.68 ± 0.04", "unit": "µM"},
      {"measurement": "IC50", "setting": "[3]", "result": "1.22 ± 0.25", "unit": "µM"}
    ]},
    {"compound": "COc1cc(C2c3cc4c(cc3C(Sc3nnc(C)s3)C3COC(=O)C23)OCO4)cc(OC)c1OC", "note": "(stereo not drawn) [Compound 4, 4-S-(5-methyl-1,3,4-thiadiazol-2)-4-deoxy-podophyllotoxin]", "values": [
      {"measurement": "IC50", "setting": "[1]", "result": "4.11 ± 0.93", "unit": "µM"},
      {"measurement": "IC50", "setting": "[2]", "result": "4.01 ± 0.02", "unit": "µM"},
      {"measurement": "IC50", "setting": "[3]", "result": "2.18 ± 0.07", "unit": "µM"}
    ]},
    {"compound": "COc1cc(C2c3cc4c(cc3C(Sc3nc5ccccc5s3)C3COC(=O)C23)OCO4)cc(OC)c1OC", "note": "(stereo not drawn) [Compound 12, 4-S-(benzothiazol-2)-4-deoxy-podophyllotoxin]", "values": [
      {"measurement": "IC50", "setting": "[1]", "result": "3.85 ± 0.47", "unit": "µM"},
      {"measurement": "IC50", "setting": "[2]", "result": "0.31 ± 0.34", "unit": "µM"},
      {"measurement": "IC50", "setting": "[3]", "result": "0.6 ± 0.39", "unit": "µM"}
    ]},
    {"compound": "COc1cc(C2c3cc4c(cc3C(Sc3nc5ccccc5[nH]3)C3COC(=O)C23)OCO4)cc(OC)c1OC", "note": "(stereo not drawn) [Compound 13, 4-S-(benzimidazol-2)-4-deoxy-podophyllotoxin]", "values": [
      {"measurement": "IC50", "setting": "[1]", "result": "6.76 ± 4.31", "unit": "µM"},
      {"measurement": "IC50", "setting": "[2]", "result": "2.32 ± 0.01", "unit": "µM"},
      {"measurement": "IC50", "setting": "[3]", "result": "3.1 ± 0.16", "unit": "µM"}
    ]},
    {"compound": "COc1cc(C2c3cc4c(cc3C(Sc3ccccn3)C3COC(=O)C23)OCO4)cc(OC)c1OC", "note": "(stereo not drawn) [Compound 5, 4-S-(pyridin-2)-4-deoxy-podophyllotoxin]", "values": [
      {"measurement": "IC50", "setting": "[1]", "result": "5.66 ± 0.47", "unit": "µM"},
      {"measurement": "IC50", "setting": "[2]", "result": "4.76 ± 0.12", "unit": "µM"},
      {"measurement": "IC50", "setting": "[3]", "result": "0.73 ± 0.05", "unit": "µM"}
    ]},
    {"compound": "COc1ccc(S(=O)(=O)Nc2nnc(SC3c4cc5c(cc4C(c4cc(OC)c(OC)c(OC)c4)C4C(=O)OCC34)OCO5)s2)cc1", "note": "(stereo not drawn) [Compound 18, 4-S-[2-N-(4-methoxy-benzenesulfonamide-)-1,3,4-thiadiazole-5-]-4-deoxy-podophyllotoxin]", "values": [
      {"measurement": "IC50", "setting": "[1]", "result": "4.05 ± 0.15", "unit": "µM"},
      {"measurement": "IC50", "setting": "[2]", "result": "1.27 ± 0.13", "unit": "µM"},
      {"measurement": "IC50", "setting": "[3]", "result": "4.14 ± 0.47", "unit": "µM"}
    ]},
    {"compound": "COc1cc(C2c3cc4c(cc3C(Sc3nnc(NS(=O)(=O)c5ccc(C)cc5)s3)C3COC(=O)C23)OCO4)cc(OC)c1OC", "note": "(stereo not drawn) [Compound 17, 4-S-[2-N-(4-methyl-benzenesulfonamide-)-1,3,4-thiadiazole-5-]-4-deoxy-podophyllotoxin]", "values": [
      {"measurement": "IC50", "setting": "[1]", "result": "1.12 ± 1.74", "unit": "µM"},
      {"measurement": "IC50", "setting": "[2]", "result": "1.04 ± 0.13", "unit": "µM"},
      {"measurement": "IC50", "setting": "[3]", "result": "0.97 ± 0.02", "unit": "µM"}
    ]}
  ]
}
